In patent publication US9499519B2, “Fused pyrimidine compounds and use thereof” (Medivation Technologies, Inc., priority 2012, dated 2016):
pIC50: −log10 of the molar value.

Tests used:
Assay type in all cases: biochemical
IGF-1R = target: T1, IGF-1R (Homo sapiens, UniProt P08069); assay: In vitro IGF-1R enzymatic assay (ADP-Glo kinase assay); settings: activated IGF-1R
T1 construct: purchased Millipore 14-802
Procedure: IC50 values of the compounds of the invention against IGF-1R and IR were measured in vitro using an ADP-Glo kinase assay Kit (Promega). […] Kinase reactions in both assays were conducted at 30° C. for 20 min with increasing concentrations of compounds of the invention.
Additional compounds of the invention were screened against activated IGF-1R.

AXL = target: T2, AXL (Homo sapiens, UniProt P30530); assay: HotSpot kinase assay: AXL; settings: 100 nM compound, read-out: % Enzyme Inhibition @ 100 nM AXL
T2 sequence (P30530 26-894): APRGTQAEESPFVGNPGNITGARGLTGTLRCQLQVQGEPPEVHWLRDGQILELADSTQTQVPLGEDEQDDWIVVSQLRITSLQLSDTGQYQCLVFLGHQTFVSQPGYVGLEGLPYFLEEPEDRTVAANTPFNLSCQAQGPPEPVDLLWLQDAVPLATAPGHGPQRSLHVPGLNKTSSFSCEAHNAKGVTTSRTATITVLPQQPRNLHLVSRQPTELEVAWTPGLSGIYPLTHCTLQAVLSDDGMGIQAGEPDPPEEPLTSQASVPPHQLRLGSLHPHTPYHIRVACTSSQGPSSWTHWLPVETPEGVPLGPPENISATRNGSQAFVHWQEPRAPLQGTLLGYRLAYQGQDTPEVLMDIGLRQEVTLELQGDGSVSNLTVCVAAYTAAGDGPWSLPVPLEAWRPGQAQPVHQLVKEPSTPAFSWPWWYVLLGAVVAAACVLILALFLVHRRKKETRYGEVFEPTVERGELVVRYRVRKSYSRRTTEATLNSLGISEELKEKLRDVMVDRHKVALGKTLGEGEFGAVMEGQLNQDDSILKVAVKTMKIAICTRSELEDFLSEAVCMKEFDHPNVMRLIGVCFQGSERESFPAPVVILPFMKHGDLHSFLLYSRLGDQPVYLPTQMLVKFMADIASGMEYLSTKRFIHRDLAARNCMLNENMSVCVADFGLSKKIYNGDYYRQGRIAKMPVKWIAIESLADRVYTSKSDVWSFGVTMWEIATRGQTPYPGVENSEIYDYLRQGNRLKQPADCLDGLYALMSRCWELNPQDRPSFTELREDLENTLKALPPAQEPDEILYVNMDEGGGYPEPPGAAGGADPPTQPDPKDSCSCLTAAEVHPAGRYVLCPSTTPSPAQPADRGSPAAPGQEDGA
Procedure: (§1) Kinase assays were performed using additional compounds against a panel of 4 kinases: AXL; c-Met; c-Mer; and Trk C. Each compound was tested at a concentration of […] in single duplicate mode against the 4 kinases. Compounds were prepared as 10 mM stock solutions in DMSO prior to use in the assay. […] IC50 values and curve fits were obtained using Prism (GraphPad Software).
(§2) The screening was performed using the “HotSpot” assay platform. The assay measures the conversion of a peptide substrate to ^33P-labelled phosphorylated product. Briefly, specific kinase/substrate pairs along with required cofactors were prepared in reaction buffer. Specifically, the substrate was prepared in reaction buffer (20 mM Hepes, pH 7.5; 10 mM MgCl2; 1 mM EGTA; 0.02% Brij35; 0.02 mg/mL BSA; 0.1 mM Na3VO4; 2 mM DTT; 1% DMSO), followed by delivery of any required cofactor to the resulting substrate solution. The corresponding kinase was delivered into the substrate solution and the reaction mixture was mixed gently. Compound was delivered into the reaction mixture, followed 15-20 minutes later by addition of a mixture of ATP (Sigma, St. Louis Mo.) and ^33P ATP (specific activity 0.01 μCi/μL final; Perkin Elmer, Waltham, Mass.) to a final concentration of 10 μM-30 μM to initiate the reaction. […] The percent of enzyme inhibition was calculated based on the percent of remaining kinase activity.

Trk B = Trk B (Homo sapiens, UniProt Q16620); assay: HotSpot kinase assay: Trk B; settings: 100 nM compound, read-out: % Enzyme Inhibition @ 100 nM Trk B
Procedure: Each compound was tested at a concentration of 0.1 μM in single duplicate mode against the 3 kinases. Compounds were prepared as 10 mM stock solutions in DMSO prior to use in the assay. […] IC50 values and curve fits were obtained using Prism (GraphPad Software).
as §2

c-Met = c-Met (Homo sapiens, UniProt P08581); assay: HotSpot kinase assay: c-Met; settings: 100 nM compound, read-out: % Enzyme Inhibition @ 100 nM c-MET
Procedure: as §1, §2

c-Mer = target: T3, c-Mer (Homo sapiens, UniProt Q12866); assay: HotSpot kinase assay: c-Mer; settings: 100 nM compound, read-out: % Enzyme Inhibition @ 100 nM c-MER
T3 sequence (Q12866 21-999): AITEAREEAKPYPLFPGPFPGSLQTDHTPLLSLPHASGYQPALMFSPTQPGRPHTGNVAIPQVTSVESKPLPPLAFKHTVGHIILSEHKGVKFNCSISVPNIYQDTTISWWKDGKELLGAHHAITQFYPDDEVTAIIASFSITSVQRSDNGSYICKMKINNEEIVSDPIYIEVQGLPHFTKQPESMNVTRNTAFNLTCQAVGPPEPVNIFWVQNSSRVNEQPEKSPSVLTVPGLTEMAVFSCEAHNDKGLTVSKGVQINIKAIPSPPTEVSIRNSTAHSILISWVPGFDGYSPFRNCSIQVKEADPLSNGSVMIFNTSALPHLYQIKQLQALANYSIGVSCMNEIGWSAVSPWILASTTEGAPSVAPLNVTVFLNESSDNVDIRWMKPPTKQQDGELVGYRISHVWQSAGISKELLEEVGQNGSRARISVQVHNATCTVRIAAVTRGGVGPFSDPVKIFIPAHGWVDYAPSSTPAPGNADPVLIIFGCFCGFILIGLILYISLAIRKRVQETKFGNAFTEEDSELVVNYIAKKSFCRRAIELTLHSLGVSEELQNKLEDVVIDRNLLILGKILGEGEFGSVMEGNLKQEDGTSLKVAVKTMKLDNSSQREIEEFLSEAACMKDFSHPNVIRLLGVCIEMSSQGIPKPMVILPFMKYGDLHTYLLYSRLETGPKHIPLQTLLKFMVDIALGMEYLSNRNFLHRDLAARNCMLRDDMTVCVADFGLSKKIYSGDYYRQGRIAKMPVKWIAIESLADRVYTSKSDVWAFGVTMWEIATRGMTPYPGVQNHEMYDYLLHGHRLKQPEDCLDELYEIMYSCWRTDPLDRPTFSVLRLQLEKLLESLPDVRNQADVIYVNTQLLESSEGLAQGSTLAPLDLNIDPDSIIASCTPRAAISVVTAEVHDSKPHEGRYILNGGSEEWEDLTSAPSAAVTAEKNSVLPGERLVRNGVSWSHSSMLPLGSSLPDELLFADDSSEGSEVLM
Procedure: as §1, §2

T1 sequence (P08069 31-1367): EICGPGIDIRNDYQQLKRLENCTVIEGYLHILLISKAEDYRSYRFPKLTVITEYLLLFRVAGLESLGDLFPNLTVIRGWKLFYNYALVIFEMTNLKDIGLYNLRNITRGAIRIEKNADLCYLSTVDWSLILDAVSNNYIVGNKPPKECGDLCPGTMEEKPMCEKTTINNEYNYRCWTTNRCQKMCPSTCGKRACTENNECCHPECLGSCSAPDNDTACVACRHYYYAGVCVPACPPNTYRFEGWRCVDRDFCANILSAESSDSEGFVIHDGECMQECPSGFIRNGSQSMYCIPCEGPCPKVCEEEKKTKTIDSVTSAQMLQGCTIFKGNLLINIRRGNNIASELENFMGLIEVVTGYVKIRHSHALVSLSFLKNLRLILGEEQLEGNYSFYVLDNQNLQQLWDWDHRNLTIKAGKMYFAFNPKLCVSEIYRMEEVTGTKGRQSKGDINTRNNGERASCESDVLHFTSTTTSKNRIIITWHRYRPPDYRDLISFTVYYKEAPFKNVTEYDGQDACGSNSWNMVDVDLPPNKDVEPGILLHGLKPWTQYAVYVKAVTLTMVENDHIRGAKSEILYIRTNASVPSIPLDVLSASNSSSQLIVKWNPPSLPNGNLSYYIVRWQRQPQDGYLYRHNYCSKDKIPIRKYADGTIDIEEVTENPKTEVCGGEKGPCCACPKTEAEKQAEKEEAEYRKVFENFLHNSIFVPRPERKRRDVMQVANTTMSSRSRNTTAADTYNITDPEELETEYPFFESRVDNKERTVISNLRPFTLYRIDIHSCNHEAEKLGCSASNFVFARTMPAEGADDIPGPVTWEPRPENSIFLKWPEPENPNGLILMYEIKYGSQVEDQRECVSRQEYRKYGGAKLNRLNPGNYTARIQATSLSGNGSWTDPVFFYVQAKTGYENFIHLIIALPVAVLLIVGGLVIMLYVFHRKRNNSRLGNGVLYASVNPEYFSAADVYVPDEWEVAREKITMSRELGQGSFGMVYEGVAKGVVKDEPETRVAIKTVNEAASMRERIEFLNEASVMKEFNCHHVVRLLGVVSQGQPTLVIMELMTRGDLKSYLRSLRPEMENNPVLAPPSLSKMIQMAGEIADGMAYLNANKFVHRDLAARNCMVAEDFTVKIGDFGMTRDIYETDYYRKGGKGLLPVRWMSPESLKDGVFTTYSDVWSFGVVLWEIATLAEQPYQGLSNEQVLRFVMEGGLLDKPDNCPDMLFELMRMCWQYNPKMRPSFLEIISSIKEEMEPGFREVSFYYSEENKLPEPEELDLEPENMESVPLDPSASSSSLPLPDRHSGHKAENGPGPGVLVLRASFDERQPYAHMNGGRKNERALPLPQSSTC
Trk B, sequence (Q16620 32-822): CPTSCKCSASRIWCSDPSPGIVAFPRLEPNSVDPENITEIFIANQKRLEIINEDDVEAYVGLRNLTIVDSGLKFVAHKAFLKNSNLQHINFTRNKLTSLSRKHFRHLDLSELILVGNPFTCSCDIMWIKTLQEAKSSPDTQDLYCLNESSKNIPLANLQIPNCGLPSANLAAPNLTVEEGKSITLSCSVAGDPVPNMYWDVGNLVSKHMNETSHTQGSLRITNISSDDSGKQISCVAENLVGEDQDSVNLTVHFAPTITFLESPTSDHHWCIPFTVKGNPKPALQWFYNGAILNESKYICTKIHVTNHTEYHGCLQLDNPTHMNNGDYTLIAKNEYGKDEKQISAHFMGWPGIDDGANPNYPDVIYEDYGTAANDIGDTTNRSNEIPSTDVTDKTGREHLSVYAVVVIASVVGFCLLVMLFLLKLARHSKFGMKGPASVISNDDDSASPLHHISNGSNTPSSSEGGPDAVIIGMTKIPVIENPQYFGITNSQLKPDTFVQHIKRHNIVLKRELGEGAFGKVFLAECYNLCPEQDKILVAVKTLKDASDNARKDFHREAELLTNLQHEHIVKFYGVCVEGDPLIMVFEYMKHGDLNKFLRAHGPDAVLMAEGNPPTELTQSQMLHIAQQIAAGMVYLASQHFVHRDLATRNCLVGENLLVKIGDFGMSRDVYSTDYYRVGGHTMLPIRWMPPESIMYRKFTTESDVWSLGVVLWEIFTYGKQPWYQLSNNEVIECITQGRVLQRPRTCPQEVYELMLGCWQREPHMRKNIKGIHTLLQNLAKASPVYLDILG
c-Met, sequence (P08581 25-1390): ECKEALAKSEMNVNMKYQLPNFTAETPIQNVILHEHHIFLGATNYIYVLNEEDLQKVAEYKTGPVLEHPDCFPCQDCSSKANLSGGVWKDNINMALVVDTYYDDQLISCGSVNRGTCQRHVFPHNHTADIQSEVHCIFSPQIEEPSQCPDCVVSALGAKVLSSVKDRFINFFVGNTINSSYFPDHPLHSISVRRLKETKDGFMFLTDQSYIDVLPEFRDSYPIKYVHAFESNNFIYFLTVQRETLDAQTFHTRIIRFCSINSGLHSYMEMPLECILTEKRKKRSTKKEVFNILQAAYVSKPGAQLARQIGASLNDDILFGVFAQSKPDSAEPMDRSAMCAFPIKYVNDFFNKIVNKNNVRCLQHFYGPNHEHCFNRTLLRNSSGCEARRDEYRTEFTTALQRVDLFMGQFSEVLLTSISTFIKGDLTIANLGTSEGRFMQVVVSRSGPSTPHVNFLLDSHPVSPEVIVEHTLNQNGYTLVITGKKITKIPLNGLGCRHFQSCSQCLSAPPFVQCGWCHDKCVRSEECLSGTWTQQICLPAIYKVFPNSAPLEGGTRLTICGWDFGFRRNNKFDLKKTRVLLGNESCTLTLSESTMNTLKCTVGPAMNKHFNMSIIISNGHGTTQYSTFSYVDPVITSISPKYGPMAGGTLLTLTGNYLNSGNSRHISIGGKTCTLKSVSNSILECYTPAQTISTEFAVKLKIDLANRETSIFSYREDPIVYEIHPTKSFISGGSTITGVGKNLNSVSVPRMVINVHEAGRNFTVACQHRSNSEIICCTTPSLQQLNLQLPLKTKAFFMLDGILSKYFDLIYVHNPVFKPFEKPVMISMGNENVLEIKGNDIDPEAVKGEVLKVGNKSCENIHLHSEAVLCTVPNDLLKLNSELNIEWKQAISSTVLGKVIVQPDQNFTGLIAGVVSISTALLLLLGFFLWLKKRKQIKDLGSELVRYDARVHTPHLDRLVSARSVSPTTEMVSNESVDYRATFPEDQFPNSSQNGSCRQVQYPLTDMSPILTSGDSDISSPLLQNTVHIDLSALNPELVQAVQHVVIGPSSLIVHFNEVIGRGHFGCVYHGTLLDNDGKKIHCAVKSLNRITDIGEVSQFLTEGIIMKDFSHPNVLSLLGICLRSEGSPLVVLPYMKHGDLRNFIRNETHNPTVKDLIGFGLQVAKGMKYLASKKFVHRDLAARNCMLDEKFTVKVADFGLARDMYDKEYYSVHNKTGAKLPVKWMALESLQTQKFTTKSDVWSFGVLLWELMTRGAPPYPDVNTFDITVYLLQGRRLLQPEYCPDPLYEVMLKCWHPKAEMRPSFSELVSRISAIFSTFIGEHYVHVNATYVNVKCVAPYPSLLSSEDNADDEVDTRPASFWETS

pIC50 (IGF-1R): 5.49
inhibition at 0.03 µM (IGF-1R; 30 nM, average, read-out: % Inh @ 30 nM Avg): 9%
inhibition at 0.1 µM (AXL): < 39%
inhibition at 0.1 µM (Trk B): < 39%
inhibition at 0.1 µM (c-Met): < 39%
inhibition at 0.1 µM (c-Mer): < 39%
Structure (SMILES): CC(C)c1cc(Nc2nc(N3CCCC3C(=O)N(C)C)nc3c2CCC3)n[nH]1 (single isomer, unassigned) [Compound 20b, 1-(4-(5-isopropyl-1H-pyrazol-3-ylamino)-6,7-dihydro-5H-cyclopenta[d]pyrimidin-2-yl)-N,N-dimethylpyrrolidine-2-carboxamide]
